Laboratory results as given in US9801896B2, “Compositions comprising S-adenosylmethionine and a gallic acid ester” (Methylation Sciences International SRL, priority 2012, dated 2017).
Blank lines part the entries; values can stand above or below the molecule they belong to.

How the values were obtained:
[1] = Beagle plasma SAMe after tablets of SAMe co-formulated with alkyl gallates (Example 1); format: in vivo; settings: fasted male beagle dogs, single oral enteric coated tablet, 400 mg SAMe ion co-formulated with 25 mg gallic acid ester; FIG. 1; compared with other formulations
Protocol: Tablets comprising SAMe and various alkyl gallates of different chemical structure were generated by mixing SAMe with either methyl gallate, ethyl gallate, butyl gallate, isobutyl gallate, isoamyl gallate or octyl gallate (see structures below). Tablets were then administered to Beagle dogs and blood samples were withdrawn over time. Analysis of concentrations of SAMe in plasma was used to compare the effects of these gallic acid esters on the uptake of orally administered SAMe in the blood.
Tablets were generated by mixing 400 mg SAMe ion (from SAMe disulfate tosylate) with 25 mg gallic acid ester along with excipients (microcrystalline cellulose, sodium starch glycolate, silicon dioxide, and magnesium stearate) to make up the 1025 mg tablet. A commercial seal coat and then a commercial enteric coat was applied to the tablets prior to dissolution testing. Detailed dissolution profiling was performed according to USP standards at either pH 6.8 or 6.0 on each set of tablets to ensure that adequate dissolution was achieved prior to in vivo pharmacokinetic analysis.
The study protocol was approved by the institution's Animal Care Committee, and all animals were cared for according to regulations proposed by Agriculture Canada and the USDA.
Ten different formulations were tested in the present study. 400 mg SAMe co-formulated with 25 mg propyl gallate was compared to: SAMe control tablets (i.e., with no propyl gallate); SAMe tablets co-administered with separate 25 mg propyl gallate tablets; a commercially available SAMe product (400 mg); or 400 mg SAMe with 25 mg of either methyl gallate, ethyl gallate, butyl gallate, isobutyl gallate, isoamyl gallate or octyl gallate.

Caco-2 cell monolayers = assay: Permeability of SAMe across Caco-2 cell monolayers with propyl gallate (Example 3)
Protocol: The Caco-2 cell line is derived from a human colorectal carcinoma and is widely used for in vitro cell culture models for the study of gastrointestinal drug absorption (Stewart, B., (1995) Pharm. Res. 12:693). In these models, pure cell lines are grown on a semi-permeable membrane. Drug formulations are placed on the apical or basolateral side of the cell monolayer and transport is determined via measurement of drug concentrations on the other side of the membrane.
The Caco-2 cell line utilized here was from the American Type Culture Collection (ATCC). Caco-2 cells are grown in Dulbecco's modified Eagle's medium (DMEM, Gibco) supplemented with 20% FBS (fetal bovine serum, Gibco), 100 uM non-essential amino acids (NEAA, Gibco) and 2 mM L-glutamine (Gibco). […] The cells used in transport studies were grown for 3 days before the experiments. The culturing conditions were 37° C. in an atmosphere of 5% CO2 and 100% humidity.
A 2 mM aqueous solution of SAMe disulfate tosylate was added on the apical or basolateral side according to the manufacturer's procedure for the Caco-2 kit.
The permeability (Papp) of SAMe is calculated using the following formula: […]
Where dQ/dt is the rate of permeation, C0 is the initial concentration of test agent, and A is the area of the monolayer.

[2] = Beagle plasma SAMe after capsules of SAMe with gallate-related molecules (Example 2); format: in vivo; settings: beagle dogs, single oral capsule, 100 mg SAMe ion with 100 mg agent; versus BHT, propyl paraben and gallic acid; FIGS. 2A, 2B
Protocol: BHT, propyl paraben and propyl gallate are food-grade antioxidants which have often been used in combination. […] The capsules also contained additional excipients (Microcrystalline cellulose, Sodium Starch Glycolate, Colloidal Silicon Dioxide, and Magnesium Stearate). Capsules were manually filled and in some embodiments, a layer of commercial seal coat was applied to the capsules using a fluid bed coater. Beagle dogs were administered a single orally delivered dose as described above.

[3] = Beagle pharmacokinetics of SAMe tablets with various amounts of propyl gallate (Example 6)
Protocol: Tablets comprising SAMe and various amounts of propyl gallate were generated by mixing S-adenosyl-L-methionine disulfate tosylate granules (equivalent to 400 mg of SAMe ion) with the various amounts of propyl gallate listed in Table 4 below. Each mixture was pressed into a tablet and coated followed by dissolution profiling and in vivo pharmacokinetic analysis using beagle dogs.
For in vivo studies, fasted male beagle dogs (7-10 kg) were used as described above. Each group (6 dogs for SAMe/propyl gallate and 6 dogs for the SAMe control lacking propyl gallate) were dosed with a single orally administered enteric coated tablet, under fasted conditions, followed by 5 mL of purified water orally with a syringe to facilitate swallowing. Pharmacokinetic blood samples (2 mL each) for SAMe analysis were collected from the jugular vein using the following time points: pre-dose, 20 and 40 minutes, 1, 1.5, 2, 3, 4, 6, and 8 hours after treatment. The venipuncture blood samples were collected into tubes containing the anticoagulant K2-EDTA, and stored on wet ice pending processing. Following collection, samples were centrifuged (at 4° C.) to separate the plasma fraction from the blood cells. […]
The concentration of SAMe in dog plasma was determined using the well established LC/MS/MS method. […]

[4] = PAMPA permeability of SAMe with and without propyl gallate (Example 4); format: in vitro ADME; settings: for Average Effective Permeability: PAMPA, SAMe 2 mM, 5 hr
Protocol: Using a PAMPA (parallel artificial membrane permeability assay) model, the permeability of SAMe was measured in the presence and absence of propyl gallate.
PAMPA methods were used to determine the permeability of substances from a donor compartment, through a lipid-infused artificial membrane into an acceptor compartment. A multi-well microtitre plate was used for the donor and a membrane/acceptor compartment is placed on top. At the beginning of the test, SAMe disulfate tosylate (with or without different concentrations of propyl gallate as indicated in Table 2 below) was added to the donor compartment, and the acceptor compartment remained drug-free. After an incubation period, the compartments were separated and the amount of SAMe was measured in each compartment. Mass balance allows calculation of SAMe that remains in the membrane.

maximum SAMe plasma concentration (Cmax), uptake into the plasma [1]: superior uptake into the plasma
Molecule: CCOC(=O)c1cc(O)c(O)c(O)c1 [ethyl gallate]

maximum SAMe plasma concentration (Cmax), uptake into the plasma [1]: superior uptake into the plasma
Molecule: CC(C)CCOC(=O)c1cc(O)c(O)c(O)c1 [isoamyl gallate]

Molecule: S-adenosyl-L-methionine disulfate tosylate [SAMe disulfate tosylate]
apparent permeability coefficient (Papp), apical to basolateral (Caco-2 cell monolayers; Caco-2, apical to basolateral, SAMe salt alone): 0.41 ×10⁻⁶ cm/s | apparent permeability coefficient (Papp), basolateral to apical (Caco-2 cell monolayers; Caco-2, basolateral to apical, SAMe salt alone): 0.5 ×10⁻⁶ cm/s

plasma SAMe Cmax and AUC, SAMe uptake into the blood [2]: superior and surprising ability | maximum SAMe plasma concentration (Cmax), uptake into the plasma [1]: superior uptake into the plasma | relationship of propyl gallate with SAMe uptake in vivo ([3]; dog, in vivo): dose-response relationship | effect of propyl gallate on SAMe transport in Caco-2 cells (Caco-2 cell monolayers; summary of Table 1): increases SAMe transport
Molecule: CCCOC(=O)c1cc(O)c(O)c(O)c1 [propyl gallate]

Molecule: CCCCOC(=O)c1cc(O)c(O)c(O)c1 [butyl gallate]
maximum SAMe plasma concentration (Cmax), uptake into the plasma [1]: did not result in pharmacokinetics even close to that of SAMe-propyl gallate formulations

maximum SAMe plasma concentration (Cmax), uptake into the plasma [1]: superior uptake into the plasma
Molecule: CCCCCCCCOC(=O)c1cc(O)c(O)c(O)c1 [octyl gallate]

Molecule: C[S+](CC[C@H](N)C(=O)[O-])C[C@H]1O[C@@H](n2cnc3c(N)ncnc32)[C@H](O)[C@@H]1O (stereo partly drawn) [SAMe, S-adenosyl-L-methionine]
Average Effective Permeability ([4]; Propyl Gallate 0 mM): 0.0042 ×10⁻⁶ cm/s | Average Effective Permeability ([4]; Propyl Gallate 0.2 mM): 0.002 ×10⁻⁶ cm/s | Average Effective Permeability ([4]; Propyl Gallate 2 mM): 0.0048 ×10⁻⁶ cm/s | transport of SAMe across the PAMPA membrane ([4]; summary of Table 2): essentially no transport | AUC(0-inf.) ± SD ([3]; beagle, oral tablet, SAMe 400 mg, Propyl Gallate 6.25 mg): 21,734 ± 9848^ hr*ng/mL
